Measurements from patent publication US8895242B2, “Single molecule nucleic acid nanoparticles” (The Regents of the University of California, priority 2009, dated 2014).

Experiments:
[1] = system: DNA nanoparticles; assay: Doxorubicin fluorescence quenching on DNA nanoparticles; conditions: indicates doxorubicin binding to the particles
From the text: With increasing concentration of Doxorubicin, the DNA nanoparticles become saturated and free Doxorubicin in solution can fluoresce.
The fluorescence of doxorubicin is quenched with the addition of DNA nanoparticles, indicating doxorubicin binding to the particles (FIG. 44).

[2] = system: cells; assay: Doxorubicin toxicity to cells with and without untargeted DNA particles; type: cell-based
Description: The IC50 was determined to be 0.1 μg of Doxo for […]. […] Targeted DNA particles may be selected or a targeting moiety added. (2) At the same time, DNA nanoparticles absorbed Doxo, which is good for our purpose of loading DNA with drugs (FIG. 45).

[3] = system: B16 melanoma; assay: Intra-tumoral injection into B16 melanoma, immunohistochemistry of immune cell recruitment; type: in vivo, mice
Description: FIG. 23 provides data relating to Hp-91(270 μg), pI:C (125 μg), or Pam3Cys (125 μg) injected into B16 melanoma and the mice were sacrificed 24 h after the injection. The tumor was embedded in OCT and frozen sections were stained for Mac 1 (macrophages), CD11c (DCs), and CD3 (T cells) by immuno-histochemistry. Pictures were taken in brightfield at 20×.
In certain subsets of breast tumors the presence of tumor-associated macrophages is associated with […]. Thus, in order to maximize the anti-tumor immune response we tested two TLR agonists; pI:C (TLR3 agonist) and Pam3Cys (TLR2 agonist), and our immunostimulatory peptides for their ability to recruit immune cells to the tumor. Hp-91, pI:C, or Pam3Cys were injected into B16 melanoma, the mice were sacrificed 24 h after the injection and the tumor was frozen and sections stained for the indicated markers. […] This is a very promising result as Hp-91 will not only contribute to the recruitment of DCs, but also mature the arriving DCs. Thus in the context of antigen release by concurrent local cytotoxic therapy, we expect to create a very favorable environment for the uptake of tumor antigen by DCs and their subsequent activation. In addition, CD8 T cells after being primed in the draining lymph nodes are expected to be recruited in higher numbers to the tumor site via the peptide leading to a strong immune response and tumor killing.

[4] = system: pancreatic cancer cell line panc02; assay: Flow cytometry binding of DNA nanoparticle clones to panc02; type: cell-based, mouse; conditions: fluorescently labeled
From the text: FIGS. 57A and 57B summarizes the results of the selection of pancreatic cancer cell line panc02 targeting particles. The mouse pancreatic lines panc02 was panned with a single module DNA nanoparticle library. After the 3rd and 4th round, the selected pool was fluorescently labeled and tested on the target cells by flow cytometry (FIG. 57A). A shift indicating enrichment of binding clones was observed. After the 5th and 6th round, clones were generated from the selected pool and sequenced (TABLE 6). 10 of the 12 sequenced clones contained a specific sequence motif: AATGGGGCG (SEQ ID NO:12). In two of the clones the motif appears in the same frame (C45 and C58). Two independent clones for each we recovered with the sequence of clone 40 and 46.

[5] = Hp-91 270 μg, pI:C 125 μg, Pam3Cys 125 μg, 24 h after injection
[6] = higher dose 500 μg, data not shown

COc1cccc2c1C(=O)c1c(O)c3c(c(O)c1C2=O)C[C@@](O)(C(=O)CO)C[C@@H]3O[C@H]1C[C@H](N)[C@H](O)[C@H](C)O1 [Doxo, Doxorubicin]
doxorubicin fluorescence on addition of DNA nanoparticles ([1]; listed as Doxorubicin): fluorescence is quenched
doxorubicin fluorescence on addition of DNA nanoparticles ([1]; listed as doxorubicin): quenched
IC50 [2]: 0.1 µg

CCCCCCCCCCCCCCCC(=O)N[C@@H](CSC[C@@H](COC(=O)CCCCCCCCCCCCCCC)OC(=O)CCCCCCCCCCCCCCC)C(=O)O [Pam3Cys]
recruitment of DCs (CD11c+) into the tumor [3, 5]: only Hp-91
recruitment of T cells (CD3+) into the tumor [3, 5]: only Hp-91
recruitment of macrophages into the tumor [3, 5]: caused recruitment of macrophages
DC recruitment into the tumor [3, 6]: no T cell and DC recruitment
T cell recruitment into the tumor [3, 6]: no T cell

B1: C21: panc02-selection clone lacking the … motif, SEQ ID NO:10 (nucleic acid)
DNA: TGCTTTTTGGAACTCCTGCTAGACGTTAGATGTATCTGACCTTACGACTTCAACTTCCTTCTAAATCTGCCCACAACGATGGTGACGTTGAGTTGGATCC
modifications: DNA, backbone and methylation of C not given here; rolling circle concatemer folded into DNA nanoparticle
binding to panc02 [4]: do not

B2: C50: panc02-selection clone lacking the … motif, SEQ ID NO:11 (nucleic acid)
DNA: TGCTTTTTGGAACTCCTGCTCAACTTGTGTCCTCTTGAAAGAGTCGGTCATACCTATAAGAATACTTTTATACAGCCAAAGGTGACGTTGAGTTGGATCC
modifications: DNA, backbone and methylation of C not given here; rolling circle concatemer folded into DNA nanoparticle
binding to panc02 [4]: do not
